Assays:
FLAG-tagged PRMT4 = target: T1, FLAG-tagged PRMT4 (Mus musculus, UniProt Q9WVG6); test: Fluorescence-based in vitro PRMT assay (F-PRMT assay), PRMT4; assay type: biochemical; details: for Experimental result (PRMT4): vs solvent control = 100%
T1 construct: Full-length FLAG-tagged PRMT protein; made in house; host or cells: Sf9 insect cells (baculovirus)
T1 sequence (Q9WVG6 1-608): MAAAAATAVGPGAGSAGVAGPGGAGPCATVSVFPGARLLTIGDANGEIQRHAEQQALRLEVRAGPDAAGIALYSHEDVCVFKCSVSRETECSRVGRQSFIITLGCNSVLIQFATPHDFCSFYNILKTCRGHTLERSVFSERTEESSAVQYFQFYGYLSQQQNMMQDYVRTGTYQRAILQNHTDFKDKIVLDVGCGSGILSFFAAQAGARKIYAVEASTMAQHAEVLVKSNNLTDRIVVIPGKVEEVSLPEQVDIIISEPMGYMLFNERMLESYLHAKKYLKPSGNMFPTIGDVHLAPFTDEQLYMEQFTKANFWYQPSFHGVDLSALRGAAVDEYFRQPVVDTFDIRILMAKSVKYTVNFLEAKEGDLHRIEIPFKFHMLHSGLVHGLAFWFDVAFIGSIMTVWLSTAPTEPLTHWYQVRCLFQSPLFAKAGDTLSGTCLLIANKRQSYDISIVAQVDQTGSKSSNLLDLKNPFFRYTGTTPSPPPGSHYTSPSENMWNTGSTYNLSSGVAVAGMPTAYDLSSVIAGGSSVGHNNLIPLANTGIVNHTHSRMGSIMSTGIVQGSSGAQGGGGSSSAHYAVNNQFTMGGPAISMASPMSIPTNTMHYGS
Procedure, shortened: (§1)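 Baculovirus/Sf9-expressed FLAG-PRMTs (human PRMT3, PRMT6; mouse PRMT4), anti-FLAG purified and used bead-bound, methylated Bz-Arg-AMC with SAM for 2 h at 37 °C, 1,000 rpm. Technical triplicates; no-SAM negative controls.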

[1] = Tolerability, body weight monitoring of xenograft mice; details: female athymic nude mice, 150 mg/kg TR-07 daily, 10 mg/kg gemcitabine every second day, 2 weeks
FLAG-tagged PRMT6 = target: T2, FLAG-tagged PRMT6 (Homo sapiens, UniProt Q96LA8); test: Fluorescence-based in vitro PRMT assay (F-PRMT assay), PRMT6; assay type: biochemical; details: for Experimental result (PRMT6): vs solvent control = 100%
T2 construct: The complete ORFs of human PRMT3 and PRMT6 were inserted; made in house; host or cells: Sf9 insect cells (baculovirus)
Procedure, shortened: as §1

[2] = Table 1, 100 μM compound, 2 μM PRMT, n = 3, racemates used

T2 sequence (Q96LA8 whole entry): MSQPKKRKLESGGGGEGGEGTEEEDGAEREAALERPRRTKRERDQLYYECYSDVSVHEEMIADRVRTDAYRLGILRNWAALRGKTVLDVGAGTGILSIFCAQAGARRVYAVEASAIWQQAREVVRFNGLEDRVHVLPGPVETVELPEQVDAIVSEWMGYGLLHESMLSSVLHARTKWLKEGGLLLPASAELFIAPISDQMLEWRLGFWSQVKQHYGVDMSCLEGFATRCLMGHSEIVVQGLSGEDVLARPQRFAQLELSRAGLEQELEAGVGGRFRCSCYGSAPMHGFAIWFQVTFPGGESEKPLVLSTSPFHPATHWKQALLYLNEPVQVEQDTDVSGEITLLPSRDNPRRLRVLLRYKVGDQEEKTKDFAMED

CN(C)Cc1cccc(CN/C=C2\C(=O)NC(=O)c3ccccc32)c1.Cl [TR-07, (Z)-1-[3-({[(1,3-Dioxo-2,3-dihydroisoquinolin-4(1H)-lidene)methyl]amino}methyl)phenyl]-N,N-dimethylmethanaminium chloride]
effect on PRMT4 activity (in words) (FLAG-tagged PRMT4; 100 μM compound): neither positively nor negatively influencing
Experimental result (PRMT4) (FLAG-tagged PRMT4; [2]): PRMT4 n.e. (Compounds, which did not significantly affect the catalytic activity (less than ±6% change or not significant p-value), are marked with [drawing 8] (no effect))
Experimental result (PRMT4) (FLAG-tagged PRMT4; Table S3, 100 µM compound, n≥3): n.e. (did not significantly affect the catalytic activity (less than ±6% change or not significant p-value), are marked with n.e. (no effect))
tolerability (adverse or systemic toxic effects, body weights) [1]: well tolerated
effect on PRMT6 activity (in words) (FLAG-tagged PRMT6; 100 μM compound): neither positively nor negatively influencing
Experimental result (PRMT6) (FLAG-tagged PRMT6; [2]): PRMT6 n.e. (Compounds, which did not significantly affect the catalytic activity (less than ±6% change or not significant p-value), are marked with [drawing 8] (no effect))
Experimental result (PRMT6) (FLAG-tagged PRMT6; Table S3, 100 µM compound, n≥3): n.e. (did not significantly affect the catalytic activity (less than ±6% change or not significant p-value), are marked with n.e. (no effect))
